# Experimental data reported in US20250122456A1, “MICRO-PHY[…] FOR IMMUNE RESPONSE MODELING” (priority 2023, published 2025).
# Tested on: gut-liver interaction with immune cells
# Experiment: donor-matched gut-liver interaction with immune cells challenged with Poly:IC
# Format: cell-based, human
# Conditions: intestinal challenge, mimicking viral infection, FIG. 12
# Text: A single-cell RNA sequencing characterization of 3 donor-matched blood, gut and liver tissue is shown at 1202. On top, T cell clustering per tissue is shown, including PBMCS (PB), liver (L), and gut lamina propria (LP) and intraepithelial space (IEL). On the bottom, a distribution of major T cell subtypes per tissue is shown including CD4 T cells, CD8 T cells, and gamma-delta T cells. […] The interacting system was challenged with Poly:IC mimicking viral infection. […] On the bottom, liver albumin production data compare the three conditions.
substance,measurement,value
Poly: IC,inflammatory cytokines detected in common media,significant induction
